Measured values from patent publication US20220185832A1, “CD73 INHIBITORS” (BioArdis LLC, priority 2019, published 2022).

Key:
[1] = target: T1, Recombinant Human 5′-Nucleotidase (CD73) (Homo sapiens, UniProt P21589); test: CD73 Enzyme Assay; format: biochemical; details: 0.5 nM human CD73, 30 μM AMP, PiColorLock phosphate detection, OD 635 nm; read-out: Potency (IC50)
T1 construct: CHO derived CD73 (Trp27-Lys547), with a C-terminal 6-His tag; 6-His (C); purchased R&D 5795-EN; host or cells: CHO
T1 sequence (P21589 27-547): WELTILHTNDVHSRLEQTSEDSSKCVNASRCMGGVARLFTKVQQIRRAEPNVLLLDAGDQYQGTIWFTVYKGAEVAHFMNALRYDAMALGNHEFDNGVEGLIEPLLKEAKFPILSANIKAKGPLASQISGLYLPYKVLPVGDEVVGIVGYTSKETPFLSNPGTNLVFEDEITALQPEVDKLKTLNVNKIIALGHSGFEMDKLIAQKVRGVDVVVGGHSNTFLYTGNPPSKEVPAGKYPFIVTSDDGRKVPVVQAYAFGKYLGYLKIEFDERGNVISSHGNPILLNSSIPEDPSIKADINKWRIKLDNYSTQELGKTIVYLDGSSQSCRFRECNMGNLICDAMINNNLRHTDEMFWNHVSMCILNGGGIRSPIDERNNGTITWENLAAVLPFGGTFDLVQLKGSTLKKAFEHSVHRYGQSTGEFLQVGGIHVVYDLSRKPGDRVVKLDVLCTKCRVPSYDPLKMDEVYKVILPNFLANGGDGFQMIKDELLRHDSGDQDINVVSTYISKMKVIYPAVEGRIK
Source text: Soluble recombinant CD73 catalyzes the conversion of adenosine monophosphate (AMP) to adenosine and inorganic phosphate. The phosphate detection reagent, PiColorLock™ (Innova Bioscience, Cat #303-0125) is based on the change in absorbance of the dye malachite green in the presence of inorganic phosphate (Pi) and this property can be exploited to measure any enzyme that generates Pi. Recombinant Human 5′-Nucleotidase (CD73) (R&D #5795-EN, CHO derived CD73 (Trp27-Lys547), with a C-terminal 6-His tag) was used in the enzymatic assay. This assay was run in a 384-well plate format (Corning® NBS™ 384 well plates, Cat #3640). The basic assay procedure involves two steps: 1) Enzyme reaction: The CD73 enzyme (R&D #5795-EN) is incubated in the presence or absence of compounds. AMP (sigma, cat #01930) is added to start the kinase reaction. 2) Detection step: “Gold mix” is added to the assay system, then stabilizers are added. After incubation the absorbance of the solution is read at OD 635 nm. The recorded OD signal is proportional to the enzyme activity.
Briefly, 25 μl human CD73 (0.5 nM final concentration) in the enzymatic buffer solutions (20 mM Tris, 25 mM NaCl, 1 mM MgCl2, pH 7.5, 0.005% Tween-20) were mixed with various concentrations of the test compound (dissolved in 100% DMSO). These solutions were incubated for 15 min at 25° C., and subsequently 25 μl AMP (30 μM final concentration) was added to start the reaction. The final reaction mixture of enzyme-substrate-compound was incubated for 20 min at 37° C. Meanwhile, “Gold mix” was prepared shortly before use by adding 1/100 vol. of accelerator to the PiColorLock™ Gold reagent. 12 μL/well of the “Gold mix” was added to assay plate containing 50 μL enzyme reaction buffer and incubated at 25° C. for 5 min. 5 μL/well stabilizer was added to the assay plate and incubated at 25° C. for 30 min. The absorbance of the well solutions was measured at 635 nm on a Spark 10M instrument (TECAN).
(§1) The percent (%) inhibition at each concentration of a compound was calculated relative to the OD value in the Max and Min control wells contained within each assay plate. The Max control wells contained enzyme and substrate as 0% inhibition, and the Min control wells only contained substrate without enzyme as 100% inhibition. The concentrations and percent inhibition values for a test compound are plotted and the concentration of the compound required to achieve 50% inhibition (IC50) was determined with a four-parameter logistic dose response equation.

[2] = target: T2, Cell surface CD73 of U87 MG human glioblastoma cells (Homo sapiens, UniProt P21589); test: CD73 Cellular Assay; format: cell-based; details: 5000 cells per well, 30 μM AMP, PiColorLock phosphate detection in supernatant, read-out: Potency (IC50)
T2 construct: Cell surface CD73 catalyzes the conversion of adenosine monophosphate (AMP) to adenosine and inorganic phosphate; endogenous in cells; host or cells: U87 MG human glioblastoma cells
T2 sequence (P21589 27-549): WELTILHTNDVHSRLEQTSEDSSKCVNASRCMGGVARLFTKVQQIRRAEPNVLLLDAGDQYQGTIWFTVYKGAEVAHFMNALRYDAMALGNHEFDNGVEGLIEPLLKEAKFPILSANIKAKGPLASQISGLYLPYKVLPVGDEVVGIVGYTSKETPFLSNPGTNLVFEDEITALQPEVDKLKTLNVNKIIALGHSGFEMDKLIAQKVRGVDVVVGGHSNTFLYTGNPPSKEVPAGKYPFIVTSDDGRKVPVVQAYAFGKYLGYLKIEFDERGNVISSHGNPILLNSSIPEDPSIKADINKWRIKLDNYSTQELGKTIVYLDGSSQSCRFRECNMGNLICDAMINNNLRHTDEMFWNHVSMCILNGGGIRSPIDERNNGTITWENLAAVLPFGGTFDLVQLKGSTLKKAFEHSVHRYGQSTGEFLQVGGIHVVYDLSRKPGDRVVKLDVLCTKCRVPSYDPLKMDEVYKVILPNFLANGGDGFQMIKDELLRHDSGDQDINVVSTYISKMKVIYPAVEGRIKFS
Experimental: Cell surface CD73 catalyzes the conversion of adenosine monophosphate (AMP) to adenosine and inorganic phosphate. U87 MG human glioblastoma cells express high level of CD73. Cells are treated with compounds in a 96-well assay plate and supernatants are collected into a 384-well detection plate. The concentration of inorganic phosphate (Pi) in the supernatants is determined using the phosphate detection reagent, PiColorLock™ (Innova Bioscience, Cat #303-0125) following the manufacturer's instructions.
Briefly, on the day of the assay, U87 MG cells were harvested and resuspended in assay buffer which consisted of 20 mM HEPES, pH=7.4, 137 mM NaCl, 5.4 mM KCl, 1.3 mM CaCl2, 4.2 mM NaHCO3 and 0.1% glucose. To test the effect of compounds on cellular CD73 enzymatic activity, 500 nL/well of compounds dissolved in DMSO were added to a 96-well TC-treated microplate (Corning #3599). Next, 80 μL/well of U87 MG cells in assay buffer were added to assay plate. After 30 minutes of incubation in an atmosphere of 5% CO2 at 37° C., 20 μL/well of 150 μM AMP (Adenosine 5′-monophosphate monohydrate, Sigma, Cat #01930) in assay buffer was added to assay plate. Final assay conditions consisted of 5000 cells per well in 0.5% DMSO and 30 μM AMP substrate. After 50 minutes of incubation in an atmosphere of 5% CO2 at 37° C., 50 μL/well of supernatant was transferred to the 384-well detection plate (Corning® NBSTM 384 well plates, Cat #3640). Meanwhile “Gold mix” was prepared shortly before use by adding 1/100 volume of accelerator to the PiColorLock™ Gold reagent. 12 μL/well of the “Gold mix” was added to detection plate containing 50 μL/well of supernatant and incubated at 25° C. for 5 minutes. 5 μL/well stabilizer was added to the detection plate and incubated at 25° C. for 30 minutes. The absorbance at 635 nm was measured on a Spark 10M instrument (TECAN).
as §1, with “cells” for “enzyme”, “cells” for “substrate without enzyme”

Compound | IC50 [1] [µM] | IC50 [2] [µM]
O=P(O)(O)CP(=O)(O)OC[C@H]1O[C@@H](c2ccc3c(NCC4CCCC4)nc(Cl)nc3c2)[C@H](O)[C@@H]1O [Compound 5, (((((2R,3S,4R,5S)-5-(2-chloro-4-((cyclopentylmethyl)amino)quinazolin-7-yl)-3,4-dihydroxytetrahydrofuran-2-yl)methoxy)(hydroxy)phosphoryl)methyl)phosphonic acid] | 0.01 to 0.099 | < 0.01
O=P(O)(O)CP(=O)(O)OC[C@H]1O[C@@H](c2ccc3c(NCC4CCCO4)nc(Cl)nc3c2)[C@H](O)[C@@H]1O (stereo partly drawn) [Compound 6, (((((2R,3S,4R,5S)-5-(2-chloro-4-(((tetrahydrofuran-2-yl)methyl)amino)quinazolin-7-yl)-3,4-dihydroxytetrahydrofuran-2-yl)methoxy)(hydroxy)phosphoryl)methyl)phosphonic acid] | 0.01 to 0.099 | < 0.01
O=P(O)(O)CP(=O)(O)OC[C@H]1O[C@@H](c2ccc3c(NC4CCC4)nc(Cl)nc3c2)[C@H](O)[C@@H]1O [Compound 7, (((((2R,3S,4R,5S)-5-(2-chloro-4-(cyclobutylamino)quinazolin-7-yl)-3,4-dihydroxytetrahydrofuran-2-yl)methoxy)(hydroxy)phosphoryl)methyl)phosphonic acid] | 0.01 to 0.099 | < 0.01
O=P(O)(O)CP(=O)(O)OC[C@H]1O[C@@H](c2ccc3c(NCC4CCC4)nc(Cl)nc3c2)[C@H](O)[C@@H]1O [Compound 8, (((((2R,3S,4R,5S)-5-(2-chloro-4-((cyclobutylmethyl)amino)quinazolin-7-yl)-3,4-dihydroxytetrahydrofuran-2-yl)methoxy)(hydroxy)phosphoryl)methyl)phosphonic acid] | < 0.01 | < 0.01
O=P(O)(O)CP(=O)(O)OC[C@H]1O[C@@H](c2ccc3c(NCC4CC4)nc(Cl)nc3c2)[C@H](O)[C@@H]1O [Compound 9, (((((2R,3S,4R,5S)-5-(2-chloro-4-((cyclopropylmethyl)amino)quinazolin-7-yl)-3,4-dihydroxytetrahydrofuran-2-yl)methoxy)(hydroxy)phosphoryl)methyl)phosphonic acid] | 0.01 to 0.099 | < 0.01
CN(c1ncnc2cc([C@@H]3O[C@H](COP(=O)(O)CP(=O)(O)O)[C@@H](O)[C@H]3O)ccc12)C1CCCC1 [Compound 10, (((((2R,3S,4R,5S)-5-(4-(cyclopentyl(methyl)amino)quinazolin-7-yl)-3,4-dihydroxytetrahydrofuran-2-yl)methoxy)(hydroxy)phosphoryl)methyl)phosphonic acid] | 0.01 to 0.099 | < 0.01
O=P(O)(O)CP(=O)(O)OC[C@H]1O[C@@H](c2ccc3c(NCc4ccccc4)ncnc3c2)[C@H](O)[C@@H]1O [Compound 12, [({[(2R,3S,4R,5S)-5-[4-(benzylamino)quinazolin-7-yl]-3,4-dihydroxyoxolan-2-yl]methoxy}(hydroxy)phosphoryl)methyl]phosphonic acid] | 0.01 to 0.099 | < 0.01
O=P(O)(O)CP(=O)(O)OC[C@H]1O[C@@H](c2ccc3c(NCc4ccccc4)nc(Cl)nc3c2)[C@@H](F)[C@@H]1O [Compound 13, (((((2R,3R,4S,5S)-5-(4-(benzylamino)-2-chloroquinazolin-7-yl)-4-fluoro-3-hydroxytetrahydrofuran-2-yl)methoxy)(hydroxy)phosphoryl)methyl)phosphonic acid] | 0.1 to 0.999 | 0.01 to 0.099
Cc1nc(NCc2ccccc2)c2ccc([C@@H]3O[C@H](COP(=O)(O)CP(=O)(O)O)[C@@H](O)[C@H]3O)cc2n1 [Compound 17, (((((2R,3S,4R,5S)-5-(4-(benzylamino)-2-methylquinazolin-7-yl)-3,4-dihydroxytetrahydrofuran-2-yl)methoxy)(hydroxy)phosphoryl)methyl)phosphonic acid] | 0.01 to 0.099 | < 0.01
C=Cc1nc(NCc2ccccc2)c2ccc([C@@H]3O[C@H](COP(=O)(O)CP(=O)(O)O)[C@@H](O)[C@H]3O)cc2n1 [Compound 18, [({[(2R,3S,4R,5S)-5-[4-(benzylamino)-2-ethenylquinazolin-7-yl]-3,4-dihydroxyoxolan-2-yl]methoxy}(hydroxy)phosphoryl)methyl]phosphonic acid] | 0.01 to 0.099 | < 0.01
O=P(O)(O)CP(=O)(O)OC[C@H]1O[C@@H](c2ccc3c(NC4CCOC4)nc(Cl)nc3c2)[C@H](O)[C@@H]1O (stereo partly drawn) [Compound 22, (((((2R,3S,4R,5S)-5-(2-chloro-4-((tetrahydrofuran-3-yl)amino)quinazolin-7-yl)-3,4-dihydroxytetrahydrofuran-2-yl)methoxy)(hydroxy)phosphoryl)methyl)phosphonic acid] | < 0.01 | < 0.01
